“And” between values parts separate entries of the source, which are not always exact repeats. Equal entries are not always repeated.
How the values were obtained:
[1] = test system: Salmonella typhimurium (ATCC 14028); assay: Surface-associated bacteria remaining on chicken after 30 second spray (Example 10); assay type: cell-based; settings: chicken halves
Excerpt: In the processing of poultry, birds that are deemed by the USDA inspectors to have undesirable levels of fecal contamination are directed to a dedicated cabinet where they are sprayed with an antimicrobial solution. If the fecal contamination were not removed, birds harboring the pathogenic Salmonella organism would enter the human food chain. Therefore, the microbiological efficacy of the HOBr derived from NaOCl/HBr and the HOBr from DBDMH were compared on chicken inoculated with a culture of Salmonella typhimurium (ATCC 14028) bacteria.
A stock solution of Salmonella typhimurium (ATCC 14028) was incubated at 35° C. for four days in Sigma Nutrient Broth for microbial culture. Three daily, consecutive transfers of the inoculums were made to ensure that a sufficient concentration of Salmonella typhimurium was available for the study. The broth and bacteria mixture was then centrifuged leaving the Salmonella typhimurium to be re-suspended in approximately 500 ml Butterfield's Buffer. The Salmonella buffer solution was serially diluted and plated on 3M Petrifilm Enterobacteriaceae Plates, incubated at 35° C. for 24 hours where it was determined that the Salmonella typhimurium population was 2.34×10^8 or log10 8.37 CFU/ml (colony forming units per milliliter).
Three whole, uncooked chickens were purchased from a local grocer. The average weight of the whole chickens was 5.30 pounds. The organs were removed from each chicken and subsequently, each chicken was cut evenly in half down the back leaving six equal halves which contained a back, breast, thigh and leg. The chicken halves were then patted dry with a paper towel, sprayed liberally on all sides and marinated with Salmonella typhimurium—Butterfield's Buffer solution inoculums for two hours, turning occasionally.
The six chicken pieces were introduced to the spray cabinet used in Example 9. […] The concentration of HOBr was measured prior to spraying the meat pieces by using a HACH DR/700 Colorimeter and HACH 10 ml DPD Total Chlorine pillow packets. […]

E. coli O157:H7 [2] = assay: Surface-associated bacteria remaining on beef and pork after 30 second spray (Example 9); assay type: cell-based; settings: for log10 (remaining): 30 second spray 50 psi, DBDMH 288 ppm Br2, NaOCl/HBr 279 ppm Br2; for % reduction / log10 reduction: vs city water control
Excerpt: (§1) The microbiological efficacy of the HOBr derived from NaOCl/HBr and the HOBr from DBDMH were compared against a culture of E. coli O157:H7 bacteria that was sprayed onto the surface of beef and pork meat.
(§2) Meat processing facilities commonly treat beef and pork with antimicrobial solutions for about 30 seconds by spraying the beef and pork carcasses and trim with the solution in a spray cabinet. To simulate this process, a small spray cabinet was constructed for the study. A 30-gallon, open-headed drum was equipped with three ½ inch PVC section of pipe that were vertically oriented and positioned 120 degrees apart. Each section of pipe had two spay nozzles four inches apart positioned to form a spray zone in the center of the drum. An air-assisted diaphragm pump was used to deliver the test solution into the three ½ inch PVC pipe sections and through the nozzles. A regulator on the air pump was used to adjust the pressure of the spray as necessary.
(§3) A stock solution of a field strain of E. coli O157:H7 was incubated at 35° C. for four days in Sigma Nutrient Broth for microbial culture. Three daily, consecutive transfers of the inoculums were made to ensure that a sufficient concentration of E. coli O157:H7 was available for the study. The broth and bacteria mixture was then centrifuged leaving the E. coli O157:H7 to be re-suspended in approximately 500 ml Butterfield's Buffer. The E. coli O157:H7 buffer solution was serially diluted and plated on 3M Petrifilm E. coli plates, incubated at 35° C. for 48 hours where it was determined that the E. coli O157:H7 population was 6.76×10^7 CFU/ml or log10 7.83.
The type of beef used was chuck roast, which was cut into nine equal pieces. The average weight of beef piece used in this portion of the study was 257.1 g. Nine boneless pork chops of average weight of pork 142.9 g were used.
(§4) In summary: • Beef— • a) Control: Three beef pieces—city water • b) DBDMH: Three beef pieces—288 ppm Br2 • c) NaOCl/HBr: Three beef pieces—279 ppm Br2 • Pork— • a) Control: Three pork pieces—city water • b) DBDMH: Three pork pieces—288 ppm Br2 • c) NaOCl/HBr: Three pork pieces—279 ppm Br2
(§5) During the 30 second spray, a piece of meat was held by a hook and moved up and down in the spray zone of the spray cabinet with rotation to ensure even distribution of the solution over the surface. The spray pressure was set at 50 psi.
After spraying, each meat piece was gently shaken three times to remove excess liquid and returned to a new, sterile bag containing 200 g of city water. The bag was sealed and then vigorously agitated manually for one minute to dislodge any viable surface-associated bacteria from the meat and into the aqueous phase. The water was then plated using 3M Petrifilm E. coli plates and incubated at 35° C. for 48 hours, after which the plates were enumerated. All plating for E. coli was performed within five minutes of completing the spray.

[3] = test system: Salmonella typhimurium (ATCC 14028); assay: Surface-associated bacteria remaining on chicken after 40 minute chilled immersion (Example 11); assay type: cell-based; settings: chicken halves
Experimental: Most poultry processing facilities cool the product by submerging it for 30-60 minutes in a chiller tank containing an antimicrobial chemical. The chilled water solution is typically around 35° F. (Food Contact Notification, nos. 334 and 453). Therefore, the microbiological efficacy of the HOBr derived from NaOCl-activated HBr and the HOBr from DBDMH were compared by immersing chickens inoculated with a culture of Salmonella typhimurium (ATCC 14028) bacteria. An inoculum was prepared in the same manner as described in Example 10. This time the inoculum yielded a Salmonella typhimurium population of 3.78×10^8 CFU/ml, or log10 8.58. This was then sprayed onto both sides of the chicken halves and left to marinate for two hours. The average weight of the whole chicken used in this portion of the study was 5.20 lbs.
Each test solution was made with chilled water immediately prior to use. For each test solution and the control, two chicken halves were placed in a plastic storage bin containing one quart of test solution. A sterilized ice pack was placed in the bin to accompany the chicken and maintain water temperature. The chicken halves were allowed to sit in the chilled solution for 40 minutes at 35° F., and were turned every five minutes while gently agitating the storage bin. All containers were covered using aluminum foil to prevent degradation of the active ingredients by UV light.
In summary: • a) Control: Two chicken halves—city water • b) DBDMH: Two chicken halves—95 ppm as total bromine • c) NaOCl/HBr: Two chicken halves—100 ppm as total bromine
After spraying, each chicken half was gently shaken three times to remove excess liquid and returned to a new, sterile bag. 300 g of city water was introduced to the bag and the bag was tumbled vigorously for one minute to dislodge viable surface-associated Salmonella bacteria. The water left at the bottom of the bag was plated using 3M Petrifilm Enterobacteriaceae Plates and incubated at 35° C. for 24 hours, upon which the plates were enumerated.

[4] = Relative stability (decay) of HOBr from NaOCl-activated HBr vs DBDMH, 600 ppm as bromine (Example 4); assay type: physicochemical; settings: HOBr 600 ppm as bromine; stored in the dark; 70-75° F.
Experimental: The relative stability of HOBr derived from NaOCl-activated HBr and HOBr derived from DBDMH was compared side-by-side. A solution of HOBr (600 ppm as bromine) was used in the comparison because this is the amount of bromine that typically exits the commercial DBDMH feeders when the solid product is dissolved. The activity of the solutions was measured using the DPD Total chlorine colorimetric method. Solutions were stored in the dark to prevent photodegradation due to UV light exposure. The temperature ranged from 70-75° F. for the duration of the test.
The HOBr decay profiles for the 600 ppm (as bromine) solutions derived from NaOCl-activated HBr solution and DBDMH solution are plotted in FIG. 2.
Graphs of ln(Co/Ct) where Co is the initial concentration of HOBr and Ct is the concentration at day t were close to straight lines for both the DBDMH and NaOCl-activated HBr derived solutions. (the regression analysis correlation coefficient, R^2 values were close to 1). The R^2 value for the DBDMH and the NaOCl-activated HBr solutions were 0.9251 and 0.9302, respectively. […]
The half-lives of HOBr from the HBr-activated solution and the DBDMH solution were calculated by […]—the natural logarithm (ln) of 2.

[5] = Octanol-Water Partition Coefficient of HOBr (Example 13); assay type: physicochemical
Experimental: In order to quantify the lipophilicity of HOBr solutions prepared from NaOCl-activated HBr, the Octanol-Water Partition Coefficient was determined.
The Octanol-Water Partition Coefficient is defined as:
Pow=Octanol-Water Partition Coefficient. Commonly the logarithm of this number is reported as Log Pow
A high concentration of a HOBr solution was prepared by introducing sufficient NaOCl to activate 3.34 ml 48% HBr in 900 ml RO water until the pH was 7.23. By iodometric titration, the solution was determined to contain 5625 ppm as Br2. The slightly yellow activated solution (25 ml) was poured into an Erlenmeyer flask containing octanol (25 ml). This was mixed for two minutes using a high-speed magnetic stirrer after which the two phases were allowed to separate. All of the yellow color had phase-separated into the top octanol layer. […] The Pow was calculated to be 1.97. This was repeated for lower concentrations of HOBr by preparing a stock solution of 300 ppm as Br2 using 0.2 ml 48% HBr in 900 ml RO water and adding sufficient NaOCl bleach until the pH was 7.33. From the 300 ppm as Br2 stock solution, solutions of 200 and 100 ppm as Br2 were prepared.
A saturated solution of DBDMH was prepared by slurrying DBDMH (1 g) powder in RO water (99 g) and stirring rapidly for 20 minutes. Undissolved solids were removed by gravity filtration. By iodometric titration, the solution was determined to contain 1170 ppm as Br2. The DBDMH solution (25 ml) was poured into an Erlenmeyer flask containing octanol (25 ml). This was mixed for two minutes using a high-speed magnetic stirrer after which the two phases were allowed to separate. […] The Pow was calculated to be 0.808. The 1170 ppm as Br2 stock solution was then used to prepare solution of 300, 200 and 100 ppm as Br2 solutions.

E. coli O157:H7 [6] = assay: Microbiological quality of wash water after spraying inoculated beef and pork (Example 9); assay type: cell-based; settings: for log10 (remaining): 30 second spray 50 psi; for log10 reduction: vs city water control
Excerpt: as §1, §2, §3, §4, §5
Immediately after each piece was sprayed, a sample of the wash solution was taken from the bottom of the spray cabinet drum for microbial analysis. The solutions were plated on 3M Petrifilm E. coli plates and incubated at 35° C. for 48 hours.

[7] = 30 second spray, vs city water control
[8] = immersion 40 minutes, vs city water control
[9] = Concentration HOBr (as Br2) 100
[10] = Concentration HOBr (as Br2) 200
[11] = Concentration HOBr (as Br2) 300
[12] = Concentration HOBr (as Br2) 1170 (saturated solution)

CC1(C)C(=O)N(Br)C(=O)N1Br [DBDMH, 1,3-dibromo-5,5-dimethylhydantoin]
log10 (remaining) ([1]; 30 second spray 40 psi, DBDMH 295 ppm, NaOCl/HBr 275 ppm as total bromine, control 6.15): 5.85 log10 CFU/ml | % reduction [1, 7]: 49.88% | log10 reduction [1, 7]: 0.30 log10 CFU/ml | log10 (remaining) (E. coli O157:H7 [2]; on beef, control 6.15): 5.56 log10 | % reduction (E. coli O157:H7 [2]; on beef): 74.30% | log10 reduction (E. coli O157:H7 [2]; on beef): 0.59 log10 | log10 (remaining) (E. coli O157:H7 [2]; on pork, control 6.43): 5.71 log10 | % reduction (E. coli O157:H7 [2]; on pork): 80.95% | log10 reduction (E. coli O157:H7 [2]; on pork): 0.72 log10 | log10 (remaining) ([3]; immersion 40 minutes at 35° F., DBDMH 95 ppm, NaOCl/HBr 100 ppm as total bromine, control 6.54): 6.25 log10 CFU/ml | % reduction [3, 8]: 48.71% | log10 reduction [3, 8]: 0.29 log10 CFU/ml | rate constant of HOBr decay [4]: 0.051 day⁻¹ | Concentration in aqueous phase after partitioning into octanol [5, 9]: 19.125 ppm as Br2 | Pow HOBr [5, 9]: 0.645 | Concentration in aqueous phase after partitioning into octanol [5, 10]: 34.99 ppm as Br2 | Pow HOBr [5, 10]: 0.719 | Concentration in aqueous phase after partitioning into octanol [5, 11]: 50.74 ppm as Br2 | Pow HOBr [5, 11]: 0.731 | Concentration in aqueous phase after partitioning into octanol [5, 12]: 159.7 ppm as Br2 and 157.5 ppm as Br2 | Pow HOBr [5, 12]: 0.808 | log10 (remaining) (E. coli O157:H7 [6]; beef, DBDMH 288 ppm Br2, NaOCl/HBr 279 ppm Br2, control 5.01): 0.48 log10 | log10 reduction (E. coli O157:H7 [6]; beef): 4.53 log10 | log10 (remaining) (E. coli O157:H7 [6]; pork, DBDMH 288 ppm Br2, NaOCl/HBr 279 ppm Br2, control 5.18): 0.99 log10 | log10 reduction (E. coli O157:H7 [6]; pork): 4.19 log10

From US20110200685A1, “Methods and compositions for the reduction of pathogenic microorganisms from meat and poultry carcasses, trim and offal” (priority 2010, published 2011)
